Source: ChEMBL document CHEMBL5390268, “α-Pyrone Derivatives from Calcarisporium arbuscula Discovered by Genome Mining” (J Nat Prod, 2023)
pIC50: −log10 of the molar value. Activity calls are given as the source filed them. The calls are words filed in the database; no cut-off is given here.

Columns and labels:
HCT-116 [1] = assay: Cytotoxicity against human HCT-116 cells assessed as inhibition of cell proliferation incubated for 48 hrs by MTS assay; format: functional, cell-based; details: HCT-116, 48 h
HepG2 [2] = assay: Cytotoxicity against human HepG2 cells assessed as inhibition of cell proliferation incubated for 48 hrs by MTS assay; format: functional, cell-based; details: HepG2, 48 h
B16 [3] = assay: Cytotoxicity against mouse B16 cells assessed as inhibition of cell proliferation incubated for 48 hrs by MTS assay; format: functional, cell-based; details: B16, 48 h
Saccharomyces cerevisiae = assay: Antimicrobial activity against Saccharomyces cerevisiae assessed as fungal growth inhibition by absorbance based assay; format: functional, organism-based
Candida albicans = assay: Antimicrobial activity against Candida albicans assessed as fungal growth inhibition by absorbance based assay; format: functional, organism-based
Bacillus subtilis = assay: Antimicrobial activity against Bacillus subtilis assessed as bacterial growth inhibition incubated for 24 hrs by absorbance based assay; format: functional, organism-based
Staphylococcus aureus = assay: Antimicrobial activity against Staphylococcus aureus assessed as bacterial growth inhibition incubated for 24 hrs by absorbance based assay; format: functional, organism-based
Escherichia coli = assay: Antimicrobial activity against Escherichia coli assessed as bacterial growth inhibition incubated for 24 hrs by absorbance based assay; format: functional, organism-based
HCT-116 [4] = assay: Cytotoxicity against human HCT-116 cells assessed as inhibition of cell proliferation at 20 ug/ml incubated for 48 hrs by MTS assay; format: functional, cell-based; details: dose 20.0 µg/ml
HepG2 [5] = assay: Cytotoxicity against human HepG2 cells assessed as inhibition of cell proliferation at 20 ug/ml incubated for 48 hrs by MTS assay; format: functional, cell-based; details: dose 20.0 µg/ml
B16 [6] = assay: Cytotoxicity against mouse B16 cells assessed as inhibition of cell proliferation at 20 ug/ml incubated for 48 hrs by MTS assay; format: functional, cell-based; details: dose 20.0 µg/ml

SMILES	pIC50 (HCT-116 [1])	pIC50 (HepG2 [2])	pIC50 (B16 [3])	inhibition (Saccharomyces cerevisiae)	inhibition (Candida albicans)	inhibition (Bacillus subtilis)	inhibition (Staphylococcus aureus)	inhibition (Escherichia coli)	inhibition (HCT-116 [4])	inhibition (HepG2 [5])	inhibition (B16 [6])
C/C=C/CC/C=C/c1cc(OC)cc(=O)o1	4.66	4.38	4.41	inactive	inactive	inactive	inactive	inactive	–	–	–
CCCCC/C=C/c1cc(OC)cc(=O)o1	–	–	–	inactive	inactive	inactive	inactive	inactive	inactive	inactive	inactive
C/C=C/CC[C@@H](O)[C@H](O)c1cc(OC)cc(=O)o1	–	–	–	inactive	inactive	inactive	inactive	inactive	inactive	inactive	inactive
CCCCC[C@@H](O)[C@H](O)c1cc(OC)cc(=O)o1	–	–	–	inactive	inactive	inactive	inactive	inactive	inactive	inactive	inactive
